Laboratory results from patent publication US20040038233A1, “Diagnosis kit for mycobacterium species indentification and drug-resistance detection and manufacturing method thereof” (priority 2000, published 2004).
Like-named read-outs stand apart in the source and are kept apart here.

Columns and labels:
[1] = system: Mycobacterium tuberculosis rpoB gene mutants; set-up: key to DRUG-SUSCEPTIBILITY: R represents resistance; S represents susceptibility; settings: cited from earlier work
[2] = system: Mycobacterium tuberculosis; assay type: cell-based

| Compound | DRUG-SUSCEPTIBILITY ([1]; 509 MUTANT (probe Mt509)) | DRUG-SUSCEPTIBILITY ([1]; 509 WILD TYPE (probe Wt509)) | DRUG-SUSCEPTIBILITY ([1]; 524 MUTANT (probe Mt524)) | DRUG-SUSCEPTIBILITY ([1]; 524 WILD TYPE (probe Wt524)) | DRUG-SUSCEPTIBILITY ([1]; 533 MUTANT (probe Mt533)) | DRUG-SUSCEPTIBILITY ([1]; 533 WILD TYPE (probe Wt533)) | drug-susceptibility of codon 526 mutants ([1]; codon 526 His>Gln, Gly, Asn, Ala, or Cys) | drug-susceptibility of codon 526 mutants ([1]; codon 526 His>Tyr, Pro, Arg, or Asp) | drug-susceptibility test result [2] |
| --- | --- | --- | --- | --- | --- | --- | --- | --- | --- |
| CO[C@H]1/C=C/O[C@@]2(C)Oc3c(C)c(O)c4c(c3C2=O)C2=NC3(CCN(CC(C)C)CC3)NC2=C(NC(=O)/C(C)=C\C=C\[C@H](C)[C@H](O)[C@@H](C)[C@@H](O)[C@@H](C)[C@H](OC(C)=O)[C@@H]1C)C4=O [rifabutin, Rifabutin] | S | RFP-S, RBU-S | RFP-R, RBU-R | RFP-S, RBU-S | RFP-R, RBU-R | RFP-S, RBU-S | susceptibility | resistance | – |
| CO[C@H]1/C=C/O[C@@]2(C)Oc3c(C)c(O)c4c(O)c(c(/C=N/N5CCN(C)CC5)c(O)c4c3C2=O)NC(=O)/C(C)=C\C=C\[C@H](C)[C@H](O)[C@@H](C)[C@@H](O)[C@@H](C)[C@H](OC(C)=O)[C@@H]1C [rifampin] | R | RFP-S, RBU-S | RFP-R, RBU-R | RFP-S, RBU-S | RFP-R, RBU-R | RFP-S, RBU-S | – | – | resistance |
